From patent publication US9802918B2, “Pyridineamine compounds useful as Pim kinase inhibitors” (Incyte Corporation, priority 2015, dated 2017)
pIC50: −log10 of the molar value.

What was measured:
Assay type in all cases: biochemical
[1] = target: Pim-2 (Homo sapiens (Human), UniProt Q9P1W9); experiment: Pim-2 kinase assay; details: 1 mM ATP; read-out: Pim2 IC50
Outline: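 Pim-2 (1 nM) with fluorescein-CREBtide ([…]) and 1 mM ATP in Tris pH 7.5, MgCl2, DTT buffer, 2 h at 25 °C. Stopped with EDTA plus Tb-anti-CREB pSer133 antibody; phosphorylation read by TR-FRET after 30 min.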

[2] = target: Pim-1 (Homo sapiens (Human), UniProt P11309); experiment: Pim-1 kinase assay; details: 1 mM ATP; read-out: Pim1 IC50
Description: Supplementation of the STOP buffer with beads and stopping the reactions were done under reduced light. Prior to the stopping reactions STOP buffer with beads was preincubated for 1 h in the dark at room temperature. After stopping the reactions, plates were incubated for 1 h in the dark at room temperature before reading on a PHERAstar FS plate reader (BMG Labtech) under reduced light.

[3] = target: Pim-3 (Homo sapiens (Human), UniProt Q86V86); experiment: Pim-3 kinase assay; details: 1 mM ATP; read-out: Pim3 IC50
Outline: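 Human Pim-3 at 1.25 pM phosphorylated […] biotin-BAD peptide with 1 mM ATP for 1 h at 25° C, in pH 7.5 Tris buffer with 5 mM MgCl2 and 5 mM DTT. Reactions were stopped with EDTA buffer containing phospho-Bad (Ser112) antibody and AlphaScreen donor/acceptor beads. Plates were read after 1 h dark incubation at room temperature.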

Sequence of Pim-1 (P11309 whole entry): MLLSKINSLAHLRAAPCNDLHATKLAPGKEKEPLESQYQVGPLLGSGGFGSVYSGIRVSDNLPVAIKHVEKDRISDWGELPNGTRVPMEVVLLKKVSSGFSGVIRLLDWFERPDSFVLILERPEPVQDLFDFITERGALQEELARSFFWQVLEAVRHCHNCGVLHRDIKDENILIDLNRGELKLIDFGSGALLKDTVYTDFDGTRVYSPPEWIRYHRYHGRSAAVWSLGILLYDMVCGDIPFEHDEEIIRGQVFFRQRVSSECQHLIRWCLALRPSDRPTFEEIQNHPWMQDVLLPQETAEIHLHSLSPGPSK
Sequence of Pim-2 (Q9P1W9 whole entry): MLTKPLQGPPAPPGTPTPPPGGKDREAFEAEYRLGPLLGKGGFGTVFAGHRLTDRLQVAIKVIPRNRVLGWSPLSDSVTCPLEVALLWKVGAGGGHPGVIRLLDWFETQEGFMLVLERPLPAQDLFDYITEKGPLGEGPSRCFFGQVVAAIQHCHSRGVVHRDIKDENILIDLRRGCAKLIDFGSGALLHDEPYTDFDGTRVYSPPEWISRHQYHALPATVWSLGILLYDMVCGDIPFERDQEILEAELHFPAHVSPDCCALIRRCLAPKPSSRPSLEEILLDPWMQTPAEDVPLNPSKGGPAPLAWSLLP

| SMILES | pIC50 [1] | pIC50 [2] | pIC50 [3] |
| --- | --- | --- | --- |
| C[C@H]1CN(c2ccncc2NCc2ccc(F)c(-c3c(F)cc(CN4CC[C@@H](C#N)C4)cc3F)n2)C[C@@H](N)[C@@H]1O [Example 44, (R)-1-(4-(6-((4-((3R,4R,5S)-3-Amino-4-hydroxy-5-methylpiperidin-1-yl)pyridin-3-ylamino)methyl)-3-fluoropyridin-2-yl)-3,5-difluorobenzyl)pyrrolidine-3-carbonitrile] | ≥ 7.00 | > 8.00 | ≥ 8.00 |
| C[C@H]1CN(c2ccncc2NCc2ccc(F)c(-c3c(F)cc(CN4CC[C@H](C#N)C4)cc3F)n2)C[C@@H](N)[C@@H]1O [Example 45, (S)-1-(4-(6-((4-((3R,4R,5S)-3-Amino-4-hydroxy-5-methylpiperidin-1-yl)pyridin-3-ylamino)methyl)-3-fluoropyridin-2-yl)-3,5-difluorobenzyl)pyrrolidine-3-carbonitrile] | ≥ 7.00 | > 8.00 | ≥ 8.00 |
| C[C@H]1CN(c2ccncc2NCc2ccc(F)c(-c3c(F)cc(CN4CC[C@@H](F)C4)cc3F)n2)C[C@@H](N)[C@@H]1O [Example 46, (3R,4R,5S)-3-amino-1-(3-(((6-(2,6-difluoro-4-(((R)-3-fluoropyrrolidin-1-yl)methyl)phenyl)-5-fluoropyridin-2-yl)methyl)amino)pyridin-4-yl)-5-methylpiperidin-4-ol] | ≥ 7.00 | > 8.00 | ≥ 8.00 |
| C[C@H]1CN(c2ccncc2NCc2ccc(F)c(-c3c(F)cc(CN4CC[C@H](F)C4)cc3F)n2)C[C@@H](N)[C@@H]1O [Example 47, (3R,4R,5S)-3-amino-1-(3-(((6-(2,6-difluoro-4-(((S)-3-fluoropyrrolidin-1-yl)methyl)phenyl)-5-fluoropyridin-2-yl)methyl)amino)pyridin-4-yl)-5-methylpiperidin-4-ol] | ≥ 7.00 | > 8.00 | ≥ 8.00 |
| C[C@@H]1C[C@H](N)CN(c2ccncc2NCc2ccc(F)c(-c3c(F)cc(CN4CCOCC4)cc3F)n2)C1 [Example 48, 4-[(3S,5R)-3-Amino-5-methylpiperidin-1-yl]-N-({6-[2,6-difluoro-4-(morpholin-4-ylmethyl)phenyl]-5-fluoropyridin-2-yl}methyl)pyridin-3-amine] | ≥ 7.00 | > 8.00 | ≥ 8.00 |
| CNCc1cc(F)c(-c2nc(CNc3cnccc3N3C[C@H](C)C[C@H](N)C3)ccc2F)c(F)c1 [Example 49, 4-((3S,5R)-3-Amino-5-methylpiperidin-1-yl)-N-((6-(2,6-difluoro-4-((methylamino)methyl)phenyl)-5-fluoropyridin-2-yl)methyl)pyridin-3-amine] | 6.00 to 7.00 | > 8.00 | ≥ 8.00 |
| C[C@@H]1C[C@H](N)CN(c2ccncc2NCc2ccc(F)c(-c3c(F)cc(CN4CCC4)cc3F)n2)C1 [Example 50, 4-((3S,5R)-3-Amino-5-methylpiperidin-1-yl)-N-((6-(4-(azetidin-1-ylmethyl)-2,6-difluorophenyl)-5-fluoropyridin-2-yl)methyl)pyridin-3-amine] | 6.00 to 7.00 | > 8.00 | ≥ 8.00 |
| C[C@@H]1C[C@H](N)CN(c2ccncc2NCc2ccc(F)c(-c3c(F)cc(CN4CC[C@@H](O)C4)cc3F)n2)C1 [Example 51, (R)-1-(4-(6-((4-((3S,5R)-3-Amino-5-methylpiperidin-1-yl)pyridin-3-ylamino)methyl)-3-fluoropyridin-2-yl)-3,5-difluorobenzyl)pyrrolidin-3-ol] | ≥ 7.00 | > 8.00 | ≥ 8.00 |
| C[C@@H]1C[C@H](N)CN(c2ccncc2NCc2ccc(F)c(-c3c(F)cc(CN4CC[C@H](O)C4)cc3F)n2)C1 [Example 52, (S)-1-(4-(6-((4-((3S,5R)-3-Amino-5-methylpiperidin-1-yl)pyridin-3-ylamino)methyl)-3-fluoropyridin-2-yl)-3,5-difluorobenzyl)pyrrolidin-3-ol] | ≥ 7.00 | > 8.00 | ≥ 8.00 |
| C[C@@H]1C[C@H](N)CN(c2ccncc2NCc2ccc(F)c(-c3c(F)cc(CN4CC[C@@H](C#N)C4)cc3F)n2)C1 [Example 53, (R)-1-(4-(6-((4-((3S,5R)-3-amino-5-methylpiperidin-1-yl)pyridin-3-ylamino)methyl)-3-fluoropyridin-2-yl)-3,5-difluorobenzyl)pyrrolidine-3-carbonitrile] | ≥ 7.00 | > 8.00 | ≥ 8.00 |
| C[C@@H]1C[C@H](N)CN(c2ccncc2NCc2ccc(F)c(-c3c(F)cc(CN4CC[C@H](C#N)C4)cc3F)n2)C1 [Example 54, (S)-1-(4-(6-((4-((3S,5R)-3-amino-5-methylpiperidin-1-yl)pyridin-3-ylamino)methyl)-3-fluoropyridin-2-yl)-3,5-difluorobenzyl)pyrrolidine-3-carbonitrile] | ≥ 7.00 | > 8.00 | ≥ 8.00 |
| C[C@@H]1C[C@H](N)CN(c2ccncc2NCc2ccc(F)c(-c3c(F)cc(CN4CC[C@@H](F)C4)cc3F)n2)C1 [Example 55, 4-((3S,5R)-3-amino-5-methylpiperidin-1-yl)-N-((6-(2,6-difluoro-4-(((R)-3-fluoropyrrolidin-1-yl)methyl)phenyl)-5-fluoropyridin-2-yl)methyl)pyridin-3-amine] | ≥ 7.00 | > 8.00 | ≥ 8.00 |
| C[C@@H]1C[C@H](N)CN(c2ccncc2NCc2ccc(F)c(-c3c(F)cc(CN4CC[C@H](F)C4)cc3F)n2)C1 [Example 56, 4-((3S,5R)-3-amino-5-methylpiperidin-1-yl)-N-((6-(2,6-difluoro-4-(((S)-3-fluoropyrrolidin-1-yl)methyl)phenyl)-5-fluoropyridin-2-yl)methyl)pyridin-3-amine] | ≥ 7.00 | > 8.00 | ≥ 8.00 |
| C[C@H]1CN(c2ccncc2NCc2ccc(F)c(C3=CCCCC3)n2)C[C@@H](N)[C@@H]1O [Example 57] | 6.00 to 7.00 | > 8.00 | ≥ 8.00 |
| C[C@@H]1C[C@H](N)CN(c2ccncc2NCc2ccc(F)c(C3CCCCC3)n2)C1 [Example 58, 4-[(3S,5R)-3-Amino-5-methylpiperidin-1-yl]-N-[(6-cyclohexyl-5-fluoropyridin-2-yl)methyl]pyridin-3-amine] | 6.00 to 7.00 | > 8.00 | 7.30 to 8.00 |
| COC1(c2cc(F)c(-c3nc(CNc4cnccc4N4C[C@@H](N)[C@H](O)[C@@H](C)C4)ccc3F)c(F)c2)CCOCC1 [Example 59, (3R,4R,5S)-3-Amino-1-{3-[({6-[2,6-difluoro-4-(4-methoxytetrahydro-2H-pyran-4-yl)phenyl]-5-fluoropyridin-2-yl}methyl)amino]pyridin-4-yl}-5-methylpiperidin-4-ol] | 6.00 to 7.00 | > 8.00 | ≥ 8.00 |
| COC1(c2cc(F)c(-c3nc(CNc4cnccc4N4C[C@H](C)C[C@H](N)C4)ccc3F)c(F)c2)CCOCC1 [Example 60, 4-[(3S,5R)-3-Amino-5-methylpiperidin-1-yl]-N-({6-[2,6-difluoro-4-(4-methoxytetrahydro-2H-pyran-4-yl)phenyl]-5-fluoropyridin-2-yl}methyl)pyridin-3-amine] | 6.00 to 7.00 | > 8.00 | ≥ 8.00 |
| C[C@H]1CN(c2ccncc2NCc2ccc(F)c(-c3c(F)cc(C4(F)CCOCC4)cc3F)n2)C[C@@H](N)[C@@H]1O [Example 61, (3R,4R,5S)-3-Amino-1-{3-[({6-[2,6-difluoro-4-(4-fluorotetrahydro-2H-pyran-4-yl)phenyl]-5-fluoropyridin-2-yl}methyl)amino]pyridin-4-yl}-5-methylpiperidin-4-ol] | ≥ 7.00 | > 8.00 | ≥ 8.00 |
| C[C@@H]1C[C@H](N)CN(c2ccncc2NCc2ccc(F)c(-c3c(F)cc(C4(F)CCOCC4)cc3F)n2)C1 [Example 62, 4-[(3S,5R)-3-Amino-5-methylpiperidin-1-yl]-N-({6-[2,6-difluoro-4-(4-fluorotetrahydro-2H-pyran-4-yl)phenyl]-5-fluoropyridin-2-yl}methyl)pyridin-3-amine] | ≥ 7.00 | > 8.00 | ≥ 8.00 |
| C[C@H]1CN(c2ccncc2NCc2ccc(F)c(-c3c(F)cc(C4CCOCC4)cc3F)n2)C[C@@H](N)[C@@H]1O [Example 63, (3R,4R,5S)-3-Amino-1-{3-[({6-[2,6-difluoro-4-(tetrahydro-2H-pyran-4-yl)phenyl]-5-fluoropyridin-2-yl}methyl)amino]pyridin-4-yl}-5-methylpiperidin-4-ol] | ≥ 7.00 | > 8.00 | ≥ 8.00 |
| C[C@@H]1C[C@H](N)CN(c2ccncc2NCc2ccc(F)c(-c3c(F)cc(C4CCOCC4)cc3F)n2)C1 [Example 64, 4-[(3S,5R)-3-Amino-5-methylpiperidin-1-yl]-N-({6-[2,6-difluoro-4-(tetrahydro-2H-pyran-4-yl)phenyl]-5-fluoropyridin-2-yl}methyl)pyridin-3-amine] | ≥ 7.00 | > 8.00 | ≥ 8.00 |
| N[C@H]1C[C@@H](C(F)(F)F)CN(c2ccncc2NCc2ccc(F)c(-c3c(F)cc(C4CCOCC4)cc3F)n2)C1 [Example 65, 4-((3S,5R)-3-Amino-5-(trifluoromethyl)piperidin-1-yl)-N-((6-(2,6-difluoro-4-(tetrahydro-2H-pyran-4-yl)phenyl)-5-fluoropyridin-2-yl)methyl)pyridin-3-amine] | ≥ 7.00 | > 8.00 | ≥ 8.00 |
